Measurements published in US20240116951A1, “HETEROCYCLIC COMPOUNDS AND USES THEREOF” (Kumquat Biosciences Inc., priority 2022, published 2024).

Key:
Format in all cases: binding
KRAS WT = target: T1, KRAS WT (Homo sapiens, UniProt P01116); assay: HTRF assay of wildtype K-Ras interaction with SOS1 (PPI-HTRF); settings: HTRF, 5 nM KRAS WT; read-out: PPI-HTRF-5 nM KRAS WT
T1 construct: made in house; host or cells: E. coli, e.g. BL21 (DE3)
Excerpt: (§1) This assay can be also used to assess a selective inhibition or reduction of signaling output of a mutant Ras protein relative to a wildtype, or relative to a different mutant Ras protein. For example, the equilibrium interaction of wildtype Kras or K-Ras mutant (e.g., wildtype or a mutant thereof including those mentioned in Example 4) with SOS1 (e.g., hSOS1) can be assessed as a proxy or an indication for a subject compound's ability to bind and inhibit Ras protein. HTRF assay detects from (i) a fluorescence resonance energy transfer (FRET) donor (e.g., antiGST-Europium) that is bound to GST-tagged K-Ras mutant to (ii) a FRET acceptor (e.g., anti-6His-XL665) bound to a His-tagged hSOS1.
(§2) The assay buffer can contain ˜5 mM HEPES pH 7.4, ˜150 mM NaCl, ˜1 mM DTT, 0.05% BSA and 0.0025% (v/v) Igepal. A Ras working solution is prepared in an assay buffer containing typically a suitable amount of the protein construct (e.g., GST-tagged K-Ras mutant) and the FRET donor (e.g., antiGST-Eu(K) from Cisbio, France). A SOS1 working solution is prepared in an assay buffer containing suitable amount of the protein construct (e.g., His-hSOS1) and the FRET acceptor (e.g., anti-6His-XL665 from Cisbio, France). A suitable amount of the protein construct will depend on the range of activity or range of IC50 values being detected or under investigation. For detecting IC50 within a range of 500 nM, the protein constructs of the same range of molarity can be utilized. […] A fixed volume of DMSO with or without test compound is transferred into a 384-well plate. Ras working solution is added to all wells of the test plate. SOS1 working solution is added to all wells except for those that are subsequently filled the inhibitor control solution. Upon incubation for about 10 minutes or longer, the fluorescence is measured with a M1000Pro plate reader (Tecan) using HTRF detection (excitation 337 nm, emission 1: 620 nm, emission 2: 665 nm). Compounds are tested in duplicates at different concentrations (for example, 10 μM, 2.5 μM, 0.63 μM, 0.16 μM, 0.04 μM, 0.01 μM test compound). The ratiometric data (i.e., emission 2 divided by emission 1) is used to calculate IC50 values against Ras using GraphPad Prism (GraphPad software). Following this general procedure, samples were tested with or without a subject compound disclosed herein including compounds exemplified in Table 1 to assess their abilities to inhibit a mutant K-Ras relative to another mutant K-Ras or wildtype K-Ras. Signaling output measured in terms of IC50 values can be obtained, a ratio of IC50 against one mutant relative to another mutant can be calculated. For instance, a selective reduction of K-Ras G12D signaling output can be evidenced by a ratio greater than one. In particular, a selective reduction of K-Ras G12D signaling relative to K-Ras WT signaling is evidenced as the ratio of IC50 (against K-Ras WT) to IC50 (against K-Ras G12D) is greater than 1.

KRAS G12D = target: T2, KRAS G12D (Homo sapiens, UniProt P01116, G12D); assay: HTRF assay of K-Ras G12D interaction with SOS1 (PPI-HTRF); settings: HTRF, 5 nM KRAS G12D; read-out: PPI-HTRF-5 nM KRAS G12D
T2 construct: made in house; host or cells: E. coli, e.g. BL21 (DE3)
Excerpt: as §1, §2

KRAS G12S = target: T3, KRAS G12S (Homo sapiens, UniProt P01116, G12S); assay: HTRF assay of K-Ras G12S interaction with SOS1 (PPI-HTRF); settings: 5 nM KRAS G12S, read-out: PPI-HTRF-5 nM KRAS G12S
T3 construct: made in house; host or cells: E. coli, e.g. BL21 (DE3)
Excerpt: as §1, §2

T2 sequence (P01116 1-188 isoform P01116-2 G12D): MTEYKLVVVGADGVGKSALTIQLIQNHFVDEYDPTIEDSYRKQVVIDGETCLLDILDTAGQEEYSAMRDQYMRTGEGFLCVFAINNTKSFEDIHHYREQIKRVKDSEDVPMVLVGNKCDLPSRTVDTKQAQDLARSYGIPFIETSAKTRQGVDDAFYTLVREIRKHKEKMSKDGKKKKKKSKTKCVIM
T3 sequence (P01116 1-188 isoform P01116-2 G12S): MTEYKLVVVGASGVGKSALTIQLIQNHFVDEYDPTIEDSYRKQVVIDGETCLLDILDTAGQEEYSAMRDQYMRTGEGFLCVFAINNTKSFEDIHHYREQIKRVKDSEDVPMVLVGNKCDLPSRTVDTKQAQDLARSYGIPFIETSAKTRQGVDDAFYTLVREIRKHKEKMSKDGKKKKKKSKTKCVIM
T1 sequence (P01116 1-188 isoform P01116-2): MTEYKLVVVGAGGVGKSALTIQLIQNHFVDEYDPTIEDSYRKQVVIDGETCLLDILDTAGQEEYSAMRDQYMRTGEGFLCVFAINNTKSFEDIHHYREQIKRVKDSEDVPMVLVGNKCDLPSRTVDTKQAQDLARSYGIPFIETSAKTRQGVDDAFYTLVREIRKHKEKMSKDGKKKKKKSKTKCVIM

| Compound | IC50 (KRAS WT) | IC50 (KRAS G12D) | IC50 (KRAS G12S) |
| --- | --- | --- | --- |
| N#Cc1c(N)sc2c(F)ccc(-c3c(Cl)cc4c(N5CC[C@@]6(CCN6C(=O)n6cnc(Cl)n6)C5)nc(OC[C@@]56CCCN5C[C@H](F)C6)nc4c3F)c12 (atropisomer, axis not shown; (aS)) [Compound 225, 2-amino-4-((R)-6-chloro-4-((R)-1-(3-chloro-1H-1,2,4-triazole-1-carbonyl)-1,6-diazaspiro[3.4]octan-6-yl)-8-fluoro-2-(((2R,7aS)-2-fluorotetrahydro-1H-pyrrolizin-7a(5H)-yl)methoxy)quinazolin-7-yl)-7-fluorobenzo[b]thiophene-3-carbonitrile] | < 5 µM | < 5 µM | < 5 µM |
| N#Cc1c(N)sc2c(F)ccc(-c3c(Cl)cc4c(N5CC[C@@]6(CCN6C(=O)n6cncn6)C5)nc(OC[C@@]56CCCN5C[C@H](F)C6)nc4c3F)c12 (single isomer, unassigned) [Compound 247] |  |  | < 5 µM |
| C[C@H](Oc1nc(N2CC[C@@]3(CCN3C(=O)n3cncn3)C2)c2cc(Cl)c(-c3ccc(F)c4sc(N)c(C#N)c34)c(F)c2n1)[C@@H]1CCCN1C (single isomer, unassigned) [Compound 301] |  |  | < 5 µM |
| Nc1nc2c(-c3c(Cl)cc4c(N5CCCC6(CCN6)C5)nc(OC[C@@]56CCCN5C[C@H](F)C6)nc4c3F)ccc(F)c2s1 (stereo partly drawn) [Compound 209, 4-(6-chloro-8-fluoro-2-(((2R,7aS)-2-fluorotetrahydro-1H-pyrrolizin-7a(5H)-yl)methoxy)-4-(1,6-diazaspiro[3.5]nonan-6-yl)quinazolin-7-yl)-7-fluorobenzo[d]thiazol-2-amine] |  |  | < 5 µM |
| Nc1nc2c(-c3c(Cl)cc4c(N5CC6(CCCCN6)C5)nc(OCC56CCCN5C[C@H](F)C6)nc4c3F)ccc(F)c2s1 (stereo partly drawn) [Compound 220, 4-(6-chloro-8-fluoro-2-(((2R)-2-fluorotetrahydro-1H-pyrrolizin-7a(5H)-yl)methoxy)-4-(2,5-diazaspiro[3.5]nonan-2-yl)quinazolin-7-yl)-7-fluorobenzo[d]thiazol-2-amine] | < 5 µM | < 5 µM |  |
| N#Cc1c(N)sc2c(F)ccc(-c3c(Cl)cc4c(N5CCCCC6(CCCN6C(=O)n6cncn6)C5)nc(OC[C@@]56CCCN5C[C@H](F)C6)nc4c3F)c12 (stereo partly drawn) [Compound 231, 4-(4-(1-(1H-1,2,4-triazole-1-carbonyl)-1,7-diazaspiro[4.6]undecan-7-yl)-6-chloro-8-fluoro-2-(((2R,7aS)-2-fluorotetrahydro-1H-pyrrolizin-7a(5H)-yl)methoxy)quinazolin-7-yl)-2-amino-7-fluorobenzo[b]thiophene-3-carbonitrile] |  |  | < 5 µM |
| N#Cc1c(N)sc2c(F)ccc(-c3c(Cl)cc4c(N5CCCC6(CCCN6C(=O)n6cncn6)C5)nc(OC[C@@]56CCCN5C[C@H](F)C6)nc4c3F)c12 (stereo partly drawn) [Compound 246, 4-(4-(1-(1H-1,2,4-triazole-1-carbonyl)-1,7-diazaspiro[4.5]decan-7-yl)-6-chloro-8-fluoro-2-(((2R,7aS)-2-fluorotetrahydro-1H-pyrrolizin-7a(5H)-yl)methoxy)quinazolin-7-yl)-2-amino-7-fluorobenzo[b]thiophene-3-carbonitrile] |  |  | < 5 µM |
| Cc1ncn(C(=O)N2CC[C@]23CCN(c2nc(OC[C@@]45CCCN4C[C@H](F)C5)nc4c(F)c(-c5ccc(F)c6sc(N)c(C#N)c56)c(Cl)cc24)C3)n1 [Compound 250, 2-amino-4-(6-chloro-8-fluoro-2-(((2R,7aS)-2-fluorotetrahydro-1H-pyrrolizin-7a(5H)-yl)methoxy)-4-((S)-1-(3-methyl-1H-1,2,4-triazole-1-carbonyl)-1,6-diazaspiro[3.4]octan-6-yl)quinazolin-7-yl)-7-fluorobenzo[b]thiophene-3-carbonitrile] |  |  | < 5 µM |
| Nc1nc2c(-c3c(Cl)cc4c(N5CC6(CNCCN6)C5)nc(OC[C@@]56CCCN5C[C@H](F)C6)nc4c3F)ccc(F)c2s1 [Compound 251, 4-(6-chloro-8-fluoro-2-(((2R,7aS)-2-fluorotetrahydro-1H-pyrrolizin-7a(5H)-yl)methoxy)-4-(2,5,8-triazaspiro[3.5]nonan-2-yl)quinazolin-7-yl)-7-fluorobenzo[d]thiazol-2-amine] |  | < 5 µM | > 5 µM |
| N#Cc1c(N)sc2c(F)ccc(-c3c(Cl)cc4c(N5CCCC6(CCCN6)C5)nc(OC[C@@]56CCCN5C[C@H](F)C6)nc4c3F)c12 (stereo partly drawn) [Compound 252, 2-amino-4-(6-chloro-8-fluoro-2-(((2R,7aS)-2-fluorotetrahydro-1H-pyrrolizin-7a(5H)-yl)methoxy)-4-(1,7-diazaspiro[4.5]decan-7-yl)quinazolin-7-yl)-7-fluorobenzo[b]thiophene-3-carbonitrile] |  |  | < 5 µM |
| N#Cc1c(N)sc2c(F)ccc(-c3c(Cl)cc4c(N5CCCC6(CCN6)C5)nc(OC[C@@]56CCCN5C[C@H](F)C6)nc4c3F)c12 (stereo partly drawn) [Compound 260, 2-amino-4-(6-chloro-8-fluoro-2-(((2R,7aS)-2-fluorotetrahydro-1H-pyrrolizin-7a(5H)-yl)methoxy)-4-(1,6-diazaspiro[3.5]nonan-6-yl)quinazolin-7-yl)-7-fluorobenzo[b]thiophene-3-carbonitrile] |  |  | < 5 µM |
| N#Cc1c(N)sc2c(F)ccc(-c3c(Cl)cc4c(N5CCC6(CCN6C(=O)n6cncn6)C5)nc(OC[C@@]56CCCN5C[C@H](F)C6)nc4c3F)c12 (stereo partly drawn) [Compound 272, 4-(4-(1-(1H-1,2,4-triazole-1-carbonyl)-1,6-diazaspiro[3.4]octan-6-yl)-6-chloro-8-fluoro-2-(((2R,7aS)-2-fluorotetrahydro-1H-pyrrolizin-7a(5H)-yl)methoxy)quinazolin-7-yl)-2-amino-7-fluorobenzo[b]thiophene-3-carbonitrile] |  |  | < 5 µM |
| N#CCC1CN(c2nc(OC[C@@]34CCCN3C[C@H](F)C4)nc3c(F)c(-c4ccc(F)c5sc(N)c(C#N)c45)c(Cl)cc23)CC12CCN2C(=O)n1cnc(C(F)F)n1 (stereo partly drawn) [Compound 330, (4R)-2-amino-4-(6-chloro-4-(8-(cyanomethyl)-1-(3-(difluoromethyl)-1H-1,2,4-triazole-1-carbonyl)-1,6-diazaspiro[3.4]octan-6-yl)-8-fluoro-2-(((2R,7aS)-2-fluorotetrahydro-1H-pyrrolizin-7a(5H)-yl)methoxy)quinazolin-7-yl)-7-fluorobenzo[b]thiophene-3-carbonitrile] |  |  | < 5 µM |
| Cc1ncn(C(=O)N2CC[C@@]23CCN(c2nc(OC[C@@]45CCCN4C[C@H](F)C5)nc4c(F)c(-c5ccc(F)c6sc(N)c(C#N)c56)c(Cl)cc24)C3)n1 [Compound 339, 2-amino-4-(6-chloro-8-fluoro-2-(((2R,7aS)-2-fluorotetrahydro-1H-pyrrolizin-7a(5H)-yl)methoxy)-4-((R)-1-(3-methyl-1H-1,2,4-triazole-1-carbonyl)-1,6-diazaspiro[3.4]octan-6-yl)quinazolin-7-yl)-7-fluorobenzo[b]thiophene-3-carbonitrile] |  |  | < 5 µM |
| N#Cc1c(N)sc2c(F)ccc(-c3c(Cl)cc4c(N5CC6(CCN6C(=O)n6cncn6)CC5COC(F)F)nc(OC[C@@]56CCCN5C[C@H](F)C6)nc4c3F)c12 (stereo partly drawn) [Compound 348, 2-amino-4-(6-chloro-4-(7-((difluoromethoxy)methyl)-1-(1H-1,2,4-triazole-1-carbonyl)-1,6-diazaspiro[3.4]octan-6-yl)-8-fluoro-2-(((2R,7aS)-2-fluorotetrahydro-1H-pyrrolizin-7a(5H)-yl)methoxy)quinazolin-7-yl)-7-fluorobenzo[b]thiophene-3-carbonitrile] |  |  | < 5 µM |
